The subject of assay [1] is rat aorta rings. Description: KCl-induced contraction of rat aorta rings (electromechanical coupling). Here is the method:
(§1) The abdominal aorta was gently cleaned of adipose and connective tissues and cut into 3-mm wide rings. These were mounted in organ baths between two parallel, L-shaped, stainless-steel hooks, with one fixed in place and the other connected to an isometric transducer. Rings were allowed to equilibrate for 60 min in modified Krebs-Henseleit solution (composition in mM: 118 NaCl, 4.75 KCl, 1.19 KH2PO4, 1.19 MgSO4, 25 NaHCO3, 11.5 glucose, 2.5 CaCl2, gassed with a 95% O2–5% CO2 gas mixture to create a pH of 7.4) under a passive tension of 1 g. During this equilibration period, the solution was changed every 15 min. Isometric tension was recorded using a digital PowerLab data acquisition system (PowerLab 8/30; ADInstruments). Ring viability was assessed by recording the response to 0.3 µM phenylephrine and 60 mM KCl. Where needed, the endothelium was removed by gently rubbing the lumen of the ring with a forceps tip. This procedure was validated by adding 10 µM acetylcholine at the plateau of phenylephrine-induced contraction; a relaxation greater than 70% or less than 10% denoted the presence or absence of functional endothelium, respectively.
(§2) Aorta rings were pre-contracted pharmaco-mechanically using 0.3 µM phenylephrine and electromechanically using 25–30 mM or 60 mM KCl. Once the contraction reached a plateau, the compound was added cumulatively into the organ bath. […] The response was calculated as the percentage of phenylephrine- or KCl-induced contraction (taken as 100%).

In assay [2] the test system is rat aorta rings. Description: Phenylephrine-induced contraction of rat aorta rings (pharmaco-mechanical coupling). The following applies: Rattus norvegicus, 0.3 µM phenylephrine. As for the experimental part: as §1, §2
The target in the next assay is T1, CaV1.2 channel (Rattus norvegicus, UniProt P22002).
T1 construct: smooth muscle cells were freshly isolated; endogenous in cells; host or cells: freshly isolated rat tail main artery smooth muscle cells
T1 sequence (P22002 whole entry): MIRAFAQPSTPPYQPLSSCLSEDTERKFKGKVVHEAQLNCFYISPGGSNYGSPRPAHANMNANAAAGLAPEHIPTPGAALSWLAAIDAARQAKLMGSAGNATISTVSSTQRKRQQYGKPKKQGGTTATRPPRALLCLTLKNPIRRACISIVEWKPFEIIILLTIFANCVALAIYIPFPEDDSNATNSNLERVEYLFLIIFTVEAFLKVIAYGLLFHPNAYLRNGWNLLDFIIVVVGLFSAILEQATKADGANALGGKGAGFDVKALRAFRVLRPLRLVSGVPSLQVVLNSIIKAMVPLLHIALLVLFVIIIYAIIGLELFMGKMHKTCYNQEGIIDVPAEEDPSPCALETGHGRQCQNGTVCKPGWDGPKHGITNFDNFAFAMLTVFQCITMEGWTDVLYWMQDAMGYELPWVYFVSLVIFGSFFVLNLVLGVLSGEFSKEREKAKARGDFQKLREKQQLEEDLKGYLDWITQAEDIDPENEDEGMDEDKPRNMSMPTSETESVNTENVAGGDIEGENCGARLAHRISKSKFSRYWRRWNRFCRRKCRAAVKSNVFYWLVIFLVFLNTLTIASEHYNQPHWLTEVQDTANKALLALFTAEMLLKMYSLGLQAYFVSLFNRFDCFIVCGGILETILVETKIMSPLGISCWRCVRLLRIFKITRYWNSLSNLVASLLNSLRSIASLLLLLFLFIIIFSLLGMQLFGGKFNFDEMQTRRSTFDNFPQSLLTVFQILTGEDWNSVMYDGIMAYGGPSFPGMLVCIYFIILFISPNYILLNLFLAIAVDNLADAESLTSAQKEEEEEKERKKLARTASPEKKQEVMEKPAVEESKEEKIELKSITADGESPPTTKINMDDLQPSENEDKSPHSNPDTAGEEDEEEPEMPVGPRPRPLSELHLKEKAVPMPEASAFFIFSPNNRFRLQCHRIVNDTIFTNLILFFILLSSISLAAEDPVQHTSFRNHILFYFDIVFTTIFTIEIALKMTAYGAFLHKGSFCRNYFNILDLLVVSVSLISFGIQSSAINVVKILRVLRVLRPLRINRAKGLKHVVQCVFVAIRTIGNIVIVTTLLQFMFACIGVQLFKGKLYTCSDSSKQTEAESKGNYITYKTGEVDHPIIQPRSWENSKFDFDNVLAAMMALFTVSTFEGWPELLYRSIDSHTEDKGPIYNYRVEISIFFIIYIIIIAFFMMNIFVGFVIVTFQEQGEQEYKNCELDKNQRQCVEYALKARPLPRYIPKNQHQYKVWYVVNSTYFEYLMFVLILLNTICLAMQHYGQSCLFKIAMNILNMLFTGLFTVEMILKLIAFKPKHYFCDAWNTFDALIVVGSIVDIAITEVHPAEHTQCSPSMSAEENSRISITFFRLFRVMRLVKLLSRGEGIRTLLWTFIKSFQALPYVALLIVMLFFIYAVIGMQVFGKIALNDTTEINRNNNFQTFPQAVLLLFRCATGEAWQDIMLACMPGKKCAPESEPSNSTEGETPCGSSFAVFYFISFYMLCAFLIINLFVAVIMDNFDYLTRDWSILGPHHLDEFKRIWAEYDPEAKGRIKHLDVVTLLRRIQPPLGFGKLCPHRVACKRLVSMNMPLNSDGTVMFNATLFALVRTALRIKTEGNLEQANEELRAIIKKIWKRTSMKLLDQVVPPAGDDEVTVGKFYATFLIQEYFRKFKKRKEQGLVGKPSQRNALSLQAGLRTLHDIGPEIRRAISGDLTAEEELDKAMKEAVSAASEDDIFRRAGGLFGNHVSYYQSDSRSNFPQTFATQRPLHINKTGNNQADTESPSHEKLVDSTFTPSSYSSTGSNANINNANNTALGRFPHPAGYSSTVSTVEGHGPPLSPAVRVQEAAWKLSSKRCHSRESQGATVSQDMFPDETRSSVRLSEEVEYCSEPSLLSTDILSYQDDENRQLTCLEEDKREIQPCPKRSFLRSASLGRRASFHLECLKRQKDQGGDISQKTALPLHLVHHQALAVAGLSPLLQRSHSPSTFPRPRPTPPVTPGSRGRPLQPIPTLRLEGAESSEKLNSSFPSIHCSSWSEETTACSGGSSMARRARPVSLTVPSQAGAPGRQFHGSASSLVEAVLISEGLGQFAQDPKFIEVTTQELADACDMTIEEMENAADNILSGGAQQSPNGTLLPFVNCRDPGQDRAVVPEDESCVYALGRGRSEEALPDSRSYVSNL
T1 sequence (P54290 25-944 partner limits assumed): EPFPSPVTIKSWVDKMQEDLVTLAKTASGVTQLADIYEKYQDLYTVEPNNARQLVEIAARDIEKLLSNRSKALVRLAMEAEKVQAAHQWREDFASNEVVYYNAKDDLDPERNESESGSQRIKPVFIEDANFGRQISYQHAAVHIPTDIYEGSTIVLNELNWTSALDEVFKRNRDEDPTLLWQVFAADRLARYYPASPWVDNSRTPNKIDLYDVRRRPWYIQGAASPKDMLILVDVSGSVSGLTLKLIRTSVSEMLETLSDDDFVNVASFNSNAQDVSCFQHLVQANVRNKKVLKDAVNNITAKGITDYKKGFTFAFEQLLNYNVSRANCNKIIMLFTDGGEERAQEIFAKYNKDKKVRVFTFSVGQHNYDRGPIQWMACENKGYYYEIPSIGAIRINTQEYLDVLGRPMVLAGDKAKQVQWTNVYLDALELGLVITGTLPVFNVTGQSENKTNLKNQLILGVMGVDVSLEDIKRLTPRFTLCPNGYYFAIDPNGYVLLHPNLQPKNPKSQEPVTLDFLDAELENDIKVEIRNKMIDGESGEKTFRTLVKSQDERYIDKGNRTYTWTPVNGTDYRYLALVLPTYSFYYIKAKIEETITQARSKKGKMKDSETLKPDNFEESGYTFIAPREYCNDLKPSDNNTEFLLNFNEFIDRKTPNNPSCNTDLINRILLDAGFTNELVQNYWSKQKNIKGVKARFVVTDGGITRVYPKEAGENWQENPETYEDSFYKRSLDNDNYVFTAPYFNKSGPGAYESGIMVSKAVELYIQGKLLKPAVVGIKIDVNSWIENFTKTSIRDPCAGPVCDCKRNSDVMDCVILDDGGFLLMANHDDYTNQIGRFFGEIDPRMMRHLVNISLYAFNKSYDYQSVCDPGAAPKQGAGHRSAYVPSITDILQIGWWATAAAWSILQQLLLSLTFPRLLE
T1 sequence (P54290 945-1091 partner limits assumed): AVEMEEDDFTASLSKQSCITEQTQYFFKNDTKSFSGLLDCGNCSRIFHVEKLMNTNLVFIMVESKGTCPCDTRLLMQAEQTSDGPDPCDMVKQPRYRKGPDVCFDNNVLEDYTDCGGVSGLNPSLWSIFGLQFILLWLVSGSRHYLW
T1 sequence (P54287 whole entry partner): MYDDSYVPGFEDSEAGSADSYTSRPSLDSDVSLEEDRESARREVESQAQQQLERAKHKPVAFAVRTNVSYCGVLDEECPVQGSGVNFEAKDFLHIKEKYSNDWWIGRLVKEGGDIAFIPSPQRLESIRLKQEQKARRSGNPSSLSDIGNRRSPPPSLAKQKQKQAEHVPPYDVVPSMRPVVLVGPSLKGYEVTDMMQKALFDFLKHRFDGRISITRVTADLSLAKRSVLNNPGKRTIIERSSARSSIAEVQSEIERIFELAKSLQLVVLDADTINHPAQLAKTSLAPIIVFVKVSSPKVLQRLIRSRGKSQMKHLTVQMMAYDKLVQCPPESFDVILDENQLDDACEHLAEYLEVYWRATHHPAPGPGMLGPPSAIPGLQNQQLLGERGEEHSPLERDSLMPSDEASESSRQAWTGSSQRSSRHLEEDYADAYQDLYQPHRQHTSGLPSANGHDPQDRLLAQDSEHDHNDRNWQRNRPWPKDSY
In words: Voltage dependence of CaV1.2 channel steady-state activation and inactivation in rat tail artery myocytes. The class given is cell-based. The following applies: for Slope inact (slope factor of inactivation) / V50 inact (50% inactivation potential): Vh −80 mV. An excerpt: An Axopatch 200B patch-clamp amplifier (Molecular Devices Corporation, Sunnyvale, CA, USA) was used to generate and apply voltage pulses to the clamped cells and record the corresponding membrane currents. Recording electrodes were pulled from borosilicate glass capillaries (WPI, Berlin, Germany) and fire-polished to obtain a pipette resistance of 2–4 MΩ, when filled with an internal solution. At the beginning of each experiment, the junction potential between the pipette and bath solution was electronically adjusted to zero. After compensation for whole-cell capacitance and series resistance (between 70% and 75%), current signals were low-pass filtered at 1 kHz and digitized at 3 kHz, before being stored on a computer hard disk. Electrophysiological responses were tested at room temperature (20–22 °C).
Cells were continuously superfused with an external solution containing 0.1 mM Ca^2+ and 30 mM TEA using a peristaltic pump (LKB 2132, Bromma, Sweden) at a flow rate of 400 µL/min. The conventional whole-cell patch-clamp method was employed to voltage-clamp smooth muscle cells. The internal solution consisted of (in mM) 100 CsCl, 10 HEPES, 11 EGTA, 2 MgCl2, 1 CaCl2 (pCa 8.4), 5 Na pyruvate, 5 succinic acid, 5 oxaloacetic acid, 3 Na2ATP, and 5 phosphocreatine; pH was adjusted to 7.4 with CsOH. IBa1.2 was recorded in an external solution containing 30 mM TEA and 5 mM Ba^2+. The current was elicited with 250-ms clamp pulses (0.067 Hz) to 10 mV, from a Vh of −50 mV. Data were collected once the current amplitude had been stabilized (usually 7–10 min after the whole-cell configuration had been obtained).
Steady-state activation curves were derived from the current–voltage relationships. Conductance (G) was calculated from the equation G = IBa1.2/(Em − Erev), where: IBa1.2 is the peak current elicited by depolarizing test pulses between −50 mV and 40 mV from a Vh of −50 mV; Em is the membrane potential; and Erev is the reversal potential (estimated from the extrapolated current-voltage curves in Figure 2). Gmax is the maximal Ba^2+ conductance (calculated at potentials ≤40 mV). The G/Gmax ratio was plotted against the membrane potential and fitted to the Boltzmann equation [40]. Steady-state inactivation curves were obtained using a double-pulse protocol. Once various levels of the conditioning potential had been applied for 5 s, followed by a short (5-ms) return to the Vh of −80 mV, a test pulse (250 ms) to 10 mV was delivered to evoke the current. The delay between the conditioning potential and the test pulse allowed the full or near-complete deactivation of the channels, simultaneously avoiding partial recovery from inactivation. K^+ currents were blocked with 30 mM TEA in the external solution and Cs^+ in the internal solution. […] The osmolarity of the 30 mM TEA- and 5 mM Ba^2+-containing external solution (320 mosmol, adjusted with NaCl if required) and that of the internal solution (290 mosmol) were measured with an osmometer (Osmostat OM 6020, Menarini Diagnostics, Florence, Italy).

One may read the Emax as the greatest response seen or fitted, relative to the assay's reference. A word on the IC50: it is the point on the concentration scale where inhibition reaches its midpoint.

Like-named read-outs stand apart in the source and are kept apart here.

For `CC1(C)CCC[C@]2(C)[C@@H](CC(=O)Nc3ccccc3-n3cccc3)[C@](C)(O)CC[C@@H]12` [Compound 7], the Emax in the assay with rat aorta rings [1] (endothelium-denuded rat aorta rings pre-contracted by 25 mM KCl, read-out: Emax (percent maximal inhibition), KCl 25 mM-induced contraction) is 94.3 ± 4.5%; in the assay on rat aorta rings [1] (endothelium-denuded rat aorta rings pre-contracted by 60 mM KCl, read-out: Emax (percent maximal inhibition), KCl 60 mM-induced contraction), 89.7 ± 1.9%; in the assay with rat aorta rings [2] (endothelium-denuded rat aorta rings, read-out: Emax (percent maximal inhibition), phenylephrine-induced contraction, −Endothelium), at most 60%; in the assay on rat aorta rings [2] (endothelium-intact rat aorta rings, read-out: Emax (percent maximal inhibition), phenylephrine-induced contraction, +Endothelium), 8.6 ± 9.3%. The IC50 stood at 0.2 ± 0.1 µM in the assay with rat aorta rings [1] (endothelium-denuded rat aorta rings pre-contracted by 25 mM KCl, read-out: IC50, KCl 25 mM-induced contraction) and 9.3 ± 2 µM in the assay with rat aorta rings [1] (endothelium-denuded rat aorta rings pre-contracted by 60 mM KCl, read-out: IC50, KCl 60 mM-induced contraction). Also, the “Slope act (slope factor of activation)” value on CaV1.2 channel (10 µM compound) stood at 8.36 ± 0.75. Besides, the “Slope inact (slope factor of inactivation)” value at CaV1.2 channel (10 µM compound) is given as −7.53 ± 0.24; on CaV1.2 channel (30 µM compound) it was −7.70 ± 0.51. The “V50 inact (50% inactivation potential)” value at CaV1.2 channel (10 µM compound) is listed as −30.24 ± 1.29 mV; on CaV1.2 channel (30 µM compound) it was −38.29 ± 2.00 mV. For the same molecule, the “Ba2+ window current, potential of the peak” value on CaV1.2 channel (10 µM, control peaked at −10 mV) is reported as “about −15 mV”. On CaV1.2 channel (10 µM, control relative amplitude 0.078), the “Ba2+ window current, relative amplitude at peak” value came out at 0.021.

For the origin of these results see article PMC9410420, “Novel Labdane Diterpenes-Based Synthetic Derivatives: Identification of a Bifunctional Vasodilator That Inhibits CaV1.2 and Stimulates KCa1.1 Channels” (Marine Drugs, 2022).
